Results reported in patent US12509444B2, “Compounds and methods for CD73 modulation and indications therefor” (Plexxikon Inc., priority 2019, dated 2025).

How the values were obtained:
[1] = target: T1, Human CD73 (amino acid residues 27-549) (Homo sapiens, UniProt P21589); assay: CD73 enzymatic assay (luciferase-based indirect assay, CellTiter-Glo); format: biochemical; conditions: 0.4 nM CD73, 150 μM AMP, 1 hour at room temperature
T1 construct: Human CD73 (amino acid residues 27-549); His tag (N); made in house; host or cells: E. coli
T1 sequence (P21589 27-549): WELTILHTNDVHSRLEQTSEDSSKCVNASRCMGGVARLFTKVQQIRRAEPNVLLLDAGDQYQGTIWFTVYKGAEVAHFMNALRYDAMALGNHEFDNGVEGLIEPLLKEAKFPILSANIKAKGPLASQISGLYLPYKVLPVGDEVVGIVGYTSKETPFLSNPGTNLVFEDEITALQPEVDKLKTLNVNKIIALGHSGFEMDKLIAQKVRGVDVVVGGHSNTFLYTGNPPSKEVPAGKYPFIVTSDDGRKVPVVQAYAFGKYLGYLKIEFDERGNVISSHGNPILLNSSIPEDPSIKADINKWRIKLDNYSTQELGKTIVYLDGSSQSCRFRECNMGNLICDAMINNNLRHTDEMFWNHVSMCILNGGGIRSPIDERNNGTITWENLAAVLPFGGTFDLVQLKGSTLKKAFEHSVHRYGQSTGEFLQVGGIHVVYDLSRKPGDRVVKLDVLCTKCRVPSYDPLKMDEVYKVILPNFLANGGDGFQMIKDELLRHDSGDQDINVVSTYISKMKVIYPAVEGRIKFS
Method in brief: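 Residual AMP inhibits luciferase, so luminescence reports CD73 turnover; read with CellTiter-Glo 2.0 plus 1 μM final ATP, 30 min. Reaction used 0.4 nM N-His CD73 (27-549, E. coli), 150 μM AMP, HEPES pH 7.4 with Tween 20, 1 h at room temperature. IC50 fitted by nonlinear regression.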

human CD73 = target: T2, human CD73 (Homo sapiens, UniProt P21589); assay: Inhibitor activity against CD73 in cell based assay (CD73 expressing CHO-K1 cells); conditions: CHO-K1 cells expressing human CD73, 150 μM AMP, 4 hours of incubation; read-out: CHO-K1 CELL VARIANT: CD73 IC50
T2 construct: expressed in transfected cells
T2 sequence (P21589 27-549): T1 sequence (P21589 27-549)
Method in brief: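 Residual supernatant AMP was quantified via CellTiter-Glo luminescence (1 μM ATP added, 30 min, room temperature) after a 4 h exposure of human CD73-expressing CHO-K1 cells to 150 μM AMP plus compound, top final 10 μM, 8 points. IC50 came from nonlinear regression of percent inhibition.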

Row | Structure (SMILES) | IC50 [1] [µM] | IC50 (human CD73) [µM]
1 | CC1(C)C(NC(=O)O[C@@H]2CCN(c3cn[nH]c(=O)c3Cl)C2)C1(C)C [P-0517, (R)-1-(5-chloro-6-oxo-1,6-dihydropyridazin-4-yl)pyrrolidin-3-yl (2,2,3,3-tetramethylcyclopropyl) carbamate] | 0.001 to 10 | 0.001 to 10
2 | O=C(NC1(C(F)(F)F)CCC1)O[C@@H]1CCN(c2cn[nH]c(=O)c2Cl)C1 [P-0518, (R)-1-(5-chloro-6-oxo-1,6-dihydropyridazin-4-yl)pyrrolidin-3-yl (1-(trifluoromethyl)cyclobutyl) carbamate] | 0.001 to 10 | 0.001 to 10
